The values below come from US20160097044A1, “Antimicrobial Enzyme Fusions Reduce Resistance and Kill Intracellular Staphylococcus aureus” (The United States of America, as Represented by the …, priority 2014, published 2016).

Data set [1] deals with intracellular S. aureus strain ISP479C in human brain microvascular endothelial cells (hBMEC). The experiment in a line: Intracellular S. aureus eradication assay in hBMEC. To be noted: 5 μg/ml, 1 h. It counts as cell-based. From the text: FIGS. 5a-5e depict peptidoglycan hydrolase-protein transduction domain (PGH-PTD) eradication of intracellular S. aureus in cultured cells. Cultured cells were infected, treated with gentamicin to kill extracellular S. aureus, and then treated with the peptidoglycan hydrolases indicated. All results are standardized to the gentamicin (GENT) only control. Nomenclature of the peptidoglycan hydrolase constructs is as in FIG. 1. Asterisks indicate statistical significance detected with single factor ANOVA (α=0.05) with paired t-test posthoc analyses α=0.05 adjusted with Sidák correction for multiple comparisons (for all cases p<0.01). […] Error bars represent SEM. […] Yellow staining in the combined panel represents intracellular co-localization (in a single plane as determined by z-stack analysis) of both S. aureus and K-L-PTD1 (blue arrow). […]
Three similar intracellular S. aureus eradication assays from three different labs were optimized for (A) a cultured bovine mammary epithelial cell line (MAC-T, Nexia Biotechnologies, Quebec, Canada; Almeida, supra), (B) primary C57BL/6 mouse-derived osteoblasts (mOBs) (McCall et al. 2008. J. Bone Miner. Res. 23: 30-40) or (C) human brain microvascular endothelial cells (hBMEC; Stins, supra). […] The cell lysate was subjected to serial dilution plating, and the resultant CFUs were counted and normalized to the gentamicin control for each assay. […]

Another data set relates to S. aureus strain ALR. In words: Rat nasal colonization model. It counts as in vivo, Wistar rats. The text has this:
FIGS. 1a-1c depict peptidoglycan hydrolase construct schematics, resistance development and effectiveness in eradicating S. aureus carriage in a rat colonization model. FIG. 1a is a schematic of the peptidoglycan hydrolase constructs. Domains: CHAP endopeptidase (CHAP, red box); N-acetylmuramoyl-L-alanine amidase (AMID, green box); M23 endopeptidase (PEP, blue oval); CBDs (LysK SH3b, gold diamond; lysostaphin SH3b, gold diamond with dot); protein transduction domain (PTD, blue circle); hexahistidine purification tag (His6). Domains are not to scale. Specific peptidoglycan cut sites are illustrated in FIG. 3a. FIG. 1b depicts in vitro antimicrobial resistance development. Engineered triple fusions K-L and L-K suppress antimicrobial resistance development compared to LysK (K), lysostaphin (L), or a combination of equimolar concentrations of both (L+K). Changes in Minimum Inhibitory Concentrations (MIC) are depicted as a fold-change at the tenth round of sublethal exposure compared to the first exposure, with the average fold-change of 4 replicates in red. Error bars=SEM. First exposure MICs: Lysostaphin, 0.77 μg/ml (27 nM); LysK, 47 μg/ml (840 nM); Lysostaphin and LysK (L+K) in combination 0.2 μg/ml (7 nM and 3 nM, respectively); triple fusion K-L, 7 μg/ml (97 nM); triple fusion L-K, 7.8 μg/ml (107 nM). FIG. 1c depicts reduction in colonization in a rat nasal carriage model. Rats were inoculated with S. aureus strain ALR on Day 1. After 5 days, the rats were treated twice daily for 3 days with 20 μl of a 10 mg/ml solution of each enzyme. The rat noses were excised on day 10, homogenized, and quantitative cultures were performed. Each point represents the CFU recovered from an individual rat. Bars indicate the median CFU/nose recovered from treated rats. […] Data were compiled from five independent experiments. Lyso=commercially purchased lysostaphin (AMBI, Tarrytown, N.Y.). Statistical comparisons were made with the Mann-Whitney test. SEQ ID NOs of depicted peptidoglycan hydrolase constructs: Lysostaphin (SEQ ID NO:1); Lysostaphin-PTD1-4, 6-12 (SEQ ID NOs:9, 11, 13, 15, 17, 19, 21, 23, 25, 27, 29, respectively); LysK (SEQ ID NO:3); LysK-PTD1-11 (SEQ ID NOs: 31, 33, 35, 37, 39, 41, 43, 45, 47, 49, 51, respectively); LysK-Lysostaphin Fusion K-L (SEQ ID NO:5); K-L-PTD1-4, 6-11 (SEQ ID NOs:53, 55, 57, 59, 61, 63, 65, 67, 69, 71, respectively); Lysostaphin-LysK Fusion L-K (SEQ ID NO:7).
Reduction in nasal colonization was observed when rats were challenged on day 0 with 10^7 CFU S. aureus strain ALR and then treated twice per day on days 5, 6, and 7 with 10 μl of 2% mupirocin calcium ointment (Bactroban Nasal) or petrolatum/softisan placebo. Noses from rats were homogenized and cultured quantitatively on day 10. Each point represents the CFU recovered from an individual rat, and the data were compiled from two independent experiments. Data were analyzed by the Mann-Whitney test, and horizontal lines represent median values. Mupirocin reduced colonization ˜98% compared to the placebo control.
The rat nasal colonization model is an adaptation of the mouse nasal colonization model that we described previously (Schaffer et al. 2006. Infect. Immun. 74:2145-2153). All animal experiments were conducted in accordance with a protocol approved by the appropriate Institutional Animal Care and Use Committees. Wistar rats (5 to 6 wks of age) were obtained from Charles River Laboratories (Wilmington, Mass.) and given food and water ad libitum. The animals were housed two per cage in a modified barrier facility under viral antibody-free conditions. The rats were given drinking water containing streptomycin sulfate (0.5 g/liter; Sigma) 1 day prior to bacterial inoculation and for the course of the experiment. The drinking water and cages were changed three times per week. […]

A further data set has as its system S. aureus strain Newman. It is filed as cell-based. To be noted: tenth round compared to first exposure. As for the experimental part: For the MIC repeated exposure method, MIC determinations were performed with S. aureus strain Newman. 100 μl of S. aureus strain Newman culture that survived at ½ the MIC (the first well with visible growth) for each round was inoculated into 5 ml TSB and cultivated to mid-log phase growth. This culture was used as the inoculum for the next round of MIC exposure (overnight growth), and the cycle was repeated for 10 rounds.
Development of resistance to the triple-acting fusion enzymes was tested on S. aureus strain Newman and compared to both parental enzymes applied individually or simultaneously. […] Survivors of the ten round exposure to peptidoglycan hydrolase were passaged five times in medium with no peptidoglycan hydrolase added. […] We compared our triple-acting fusions to small molecule antibiotics in similar assays.

Data set [2] has as its system S. aureus Newbould 305. In words: Turbidity reduction assay. It is filed as cell-based. The settings on record: 1 μM enzyme, cells at OD600nm 1.0, FIG. 6a. On the procedure: (§1) FIG. 6a depicts the specific activity of peptidoglycan hydrolase fusion constructs in vitro in a turbidity reduction assay with S. aureus Newbould 305 resuspended in lysis buffer to an OD600nm of 1.0 and treated with 1 μM final concentrations of each peptidoglycan hydrolase. The maximum specific activity for three experiments are represented as an average with SEM error bars. FIG. 6b depicts the bacterial burden in mice with mastitis treated with recombinant peptidoglycan hydrolases. Colony Forming Units (CFUs) from infected murine mammary glands following a single treatment with 50 μl of 25 μM peptidoglycan hydrolase (1.25 nmol). Each data point represents the average of duplicate bacterial platings. The horizontal bars represent the average CFU/mg for each group. FIG. 6c illustrates the TNFα response in mice with mastitis that were treated with peptidoglycan hydrolases. Data represents a minimum of 7 measurements in duplicate. Log TNFα was used for statistical analysis. Single asterisks indicate a significant difference from buffer control (p<0.05); double asterisks indicate a significant difference from the parental enzyme (p<0.05).
FIG. 7 depicts a turbidity reduction assay of select peptidoglycan hydrolases against S. aureus Newbould 305. Bacterial cells were resuspended in lysis buffer to an OD600nm of 1.0 and lysed with 1 μM final concentrations of each peptidoglycan hydrolase. The maximum rate of ΔOD of three experiments are represented as an average with error bars representing SEM. Double asterisks indicate significant difference from parental. Mean comparisons were performed with one way ANOVA (P=3.3×10^−5) with t test post hoc analysis with Sidák adjusted alpha (p<0.01).

Data set [3] relates to S. aureus Newbould 305. The experiment in a line: Murine model of mastitis, bacterial load. It counts as in vivo, C57BL6/SJL mice. The settings on record: single 1.25 nmoles intramammary infusion 30 minutes post infection, 18 h. On the procedure:
as §1
To evaluate the efficacy of purified, individually administered peptidoglycan hydrolases in a murine model of bovine mastitis, female C57BL6/SJL mice were challenged by the intramammary route with 100 CFU S. aureus Newbould 305 in 50 μl buffer. A single 1.25 nmoles intramammary infusion of each desired peptidoglycan hydrolase (50 μl of a 25 μM solution) or 50 μl PBS was given 30 minutes post infection [with up to six glands treated per animal, each gland receiving a unique treatment] as described earlier (Schmelcher et al. 2012. Appl. Environ. Microbiol. 78:2297-2305; Kerr et al. 2001. Nat. Biotechnol. 19:66-70). Dams were euthanized 18 h post infusion, the mammary glands were aseptically dissected, and portions of the gland were used for determination of bacterial load and TNFα concentrations, as described previously (Schmelcher et al., supra).
Statistical analysis: The variables were analyzed as two-factor mixed models with Treatment as the factor and Mouse as random Blocks. This model […] within mouse correlations. Log(TNFα) was used. The variance grouping technique was used for log CFU and log TNFα to correct for variance heterogeneity. Means comparisons were done with Sidak adjusted p-values so that the experiment-wise error was 0.05. Log(TNFα) is back-transformed to the original units for graphing.

As for “1-PTD12: lysostaphin with PTD 12 (TAT 49-57); SEQ ID NO:29”, the “intracellular S. aureus CFUs relative to gentamicin only control” value in data set [1] is “reduce the intracellular S. aureus strain ISP479C”.

On to `C/C(=C\C(=O)OCCCCCCCCC(=O)O)C[C@@H]1OC[C@H](C[C@@H]2O[C@H]2[C@@H](C)[C@H](C)O)[C@@H](O)[C@H]1O` [Mupirocin, mupirocin, reference compound], for which the “reduction in nasal colonization compared to placebo control” value with S. aureus strain ALR (10 μl of 2% mupirocin calcium ointment twice per day on days 5, 6, 7, separate experiment) was determined as 98%.

On to `[H]/N=C(/N)N[C@H]1[C@H](O)[C@@H](O)[C@H](O[C@@H]2O[C@@H](C)[C@](O)(C=O)[C@H]2O[C@@H]2O[C@@H](CO)[C@H](O)[C@@H](O)[C@@H]2NC)[C@@H](N/C(N)=N\[H])[C@@H]1O` [streptomycin, reference compound], for which the “increase in MIC after 10 rounds of sub-lethal exposure” value with S. aureus strain Newman turned out to be 13 fold.

For the molecule “L-PTD9: lysostaphin with PTD 9 (TAT 48-60); SEQ ID NO:23”, the figures for the “turbidity reduction (in vitro lytic) activity” value with S. aureus Newbould 305 [2] and in the data set with S. aureus Newbould 305 [2] (listed as 1-PTD9) were “virtually inactive” and “reduced the in vitro activity”, respectively. In the data set with S. aureus Newbould 305 [3], the “bacterial load / clearance of mammary glands (in words)” value is “capable of reducing bacterial load within the mouse mammary glands relative to the PBS buffer control”.

As to “Trimethoprim/sulfamethoxazole [reference compound]”, the “increase in MIC after 10 rounds of sub-lethal exposure” value in the data set with S. aureus strain Newman came to 6 fold.

As for “lysostaphin (AMBI, Tarrytown, N.Y.): commercially purchased lysostaphin (AMBI, Tarrytown, N.Y.)”, in the data set on S. aureus strain ALR (200 μg intranasally twice a day on days 5, 6, 7, noses cultured day 10), the “decrease in CFU/nose (nasal colonization) compared to rats treated with buffer” value is listed as 87%.
